# Active and inactive are the calls of the source. The rule behind the calls is not given here. Where a SMILES comes first, the peptide text is derived from it. Bridges are numbered along the chain shown (N, C = ends). [ ]: non-standard residue; d: D form. The star is where a group is joined. X1 = CC[C@H](C)CCCCC(=O)*; Dab = NCC[C@H](N)C(=O)O
# Assays:
# Staphylococcus aureus [1] = test: Synergistic antibacterial activity against rifampicin-resistant Staphylococcus aureus ATCC 25923 assessed as fractional inhibitory concentration index incubated for 18 hrs in presence of rifampicin by checker board assay; format: functional
# Escherichia coli [2] = test: Antimicrobial activity against Escherichia coli ATCC 25922 assessed as swollen cell membrane measured after 0.5 to 2 hrs by SEM analysis; format: functional, organism-based; conditions: time 0.5-2 hrs
# [3] = Acute toxicity in Kunming mouse assessed as respiratory depression in lungs by measuring mortality at 19 to 30 mg/kg, ip within 1 hr; format: organism-based; conditions: in vivo, dose 19-30 mg/kg
# Escherichia coli [4] = test: Antimicrobial activity against Escherichia coli ATCC 25922 assessed as reduction of bacterial growth incubated for 18 hrs by CLSI protocol based broth microdilution method; format: functional
# Escherichia coli [5] = test: Synergistic antibacterial activity against meropenem-resistant Escherichia coli ATCC 25922 assessed as fractional inhibitory concentration index incubated for 18 hrs in presence of meropenem by checker board assay; format: functional
# Staphylococcus aureus [6] = test: Antibacterial activity against Staphylococcus aureus ATCC 25923 infected in BALB/c mouse assessed as reduction in bacterial load in lung at 5 to 10 mg/kg, ip measured after 4 to 12 hrs (reference value: 5.6 x 10^6 CFU/g); format: functional; conditions: dose 5-10 mg/kg, time 4-12 hrs
# Escherichia coli [7] = test: Antimicrobial activity against Escherichia coli ATCC 25922 assessed as breakage of cell membrane measured after 4 hrs by SEM analysis; format: functional, organism-based
# [8] = Acute toxicity in ip dosed Kunming mouse assessed as lethal dose; format: organism-based; conditions: in vivo
# [9] = Acute toxicity in Kunming mouse assessed as increased interalveolar space at 25 mg/kg, ip by H and E staining based analysis; format: organism-based; conditions: in vivo
# Cell membrane [10] = test: Induction of cytoplasmic membrane depolarization in […] assessed as increase in fluorescence intensity at 1 to 4 times MIC measured after 1 min by DiSC3-5 dye based fluorescence method; format: subcellular
# Escherichia coli [11] = test: Synergistic antibacterial activity against rifampicin-resistant Escherichia coli ATCC 25922 assessed as fractional inhibitory concentration index incubated for 18 hrs in presence of rifampicin by checker board assay; format: functional
# Staphylococcus aureus [12] = test: Bactericidal activity against Staphylococcus aureus ATCC 25923 assessed as time required to kill bacteria at 2 times MIC by time-killing assay; format: functional
# [13] = Cytotoxicity against human HK-2 cells assessed as reduction in cell viability incubated for 1 hr by resazurin based microplate reader method; format: toxicity
# Cell membrane [14] = test: Induction of inner membrane permeabilization in Escherichia coli ML-35 ATCC 43587 at 1 to 4 times MIC by ONPG based assay; conditions: DDE = dose-dependent effect
# [15] = Acute toxicity in Kunming mouse assessed as distortion of alveolar morphology at 25 mg/kg, ip by H and E staining based analysis; format: organism-based; conditions: in vivo
# Escherichia coli [16] = test: Synergistic antibacterial activity against kanamycin-resisitant Escherichia coli ATCC 25922 assessed as fractional inhibitory concentration index incubated for 18 hrs in presence of kanamycin by checker board assay; format: functional
# Cell membrane [17] = test: Induction of cytoplasmic membrane depolarization in Staphylococcus aureus ATCC 25923 assessed as increase in fluorescence intensity at 4 times MIC measured after 1 min by DiSC3-5 dye based fluorescence method; format: subcellular
# [18] = system: Staphylococcus epidermidis; test: Antimicrobial activity against Staphylococcus epidermidis ATCC 12228 assessed as reduction of bacterial growth incubated for 18 hrs by CLSI protocol based broth microdilution method; format: functional
# Staphylococcus aureus [19] = test: Induction of drug resistance in Staphylococcus aureus ATCC 25923 assessed as increase in MIC after 10 passages by CLSI protocol based broth microdilution method; format: functional
# Bacillus subtilis = test: Antimicrobial activity against Bacillus subtilis ATCC 23857 assessed as reduction of bacterial growth incubated for 18 hrs by CLSI protocol based broth microdilution method; format: functional
# Erythrocyte = test: Hemolytic activity in mouse red blood cells assessed as release of hemoglobin incubated for 1 hr by microplate reader method; format: toxicity, cell-based
# Cell membrane [20] = test: Induction of cytoplasmic membrane depolarization in Pseudomonas aeruginosa ATCC 27853 assessed as increase in fluorescence intensity at 1 to 4 times MIC measured after 1 min by DiSC3-5 dye based fluorescence method; format: subcellular
# [21] = Acute toxicity in Kunming mouse assessed as pulmonary congestion at 25 mg/kg, ip by H and E staining based analysis; format: organism-based; conditions: in vivo
# Staphylococcus aureus [22] = test: Antimicrobial activity against Staphylococcus aureus ATCC 25923 assessed as reduction of bacterial growth incubated for 18 hrs by CLSI protocol based broth microdilution method; format: functional
# [23] = Acute toxicity in Kunming mouse assessed as swollen kidney cells at 25 mg/kg, ip by H and E staining based analysis; format: organism-based; conditions: in vivo
# Klebsiella pneumoniae = test: Antimicrobial activity against Klebsiella pneumoniae ATCC 700603 assessed as reduction of bacterial growth incubated for 18 hrs by CLSI protocol based broth microdilution method; format: functional
# Enterococcus faecalis = test: Antimicrobial activity against Enterococcus faecalis ATCC 29212 assessed as reduction of bacterial growth incubated for 18 hrs by CLSI protocol based broth microdilution method; format: functional
# Lipopolysaccharide (LPS) = test: Binding affinity to LPS (unknown origin) assessed as reduction in bactericidal activity against Escherichia coli ATCC 25922 at 2 times MIC incubated for 2 hrs in presence of 32 ug/ml of LPS by competitive binding assay
# Pseudomonas aeruginosa = test: Antimicrobial activity against Pseudomonas aeruginosa ATCC 27853 assessed as reduction of bacterial growth incubated for 18 hrs by CLSI protocol based broth microdilution method; format: functional
smiles,measurement,setting,value
CC[C@H](C)CCCCC(=O)N[C@@H](CCN)C(=O)N[C@H](C(=O)N[C@@H](CCN)C(=O)N[C@H]1CCNC(=O)[C@H]([C@@H](C)O)NC(=O)[C@H](CCN)NC(=O)[C@H](CCN)NC(=O)[C@H](CC(C)C)NC(=O)[C@@H](Cc2ccccc2)NC(=O)[C@H](CCN)NC1=O)[C@@H](C)O (X1-[Dab]T[Dab][Dab][Dab][dF]L[Dab][Dab]T; lactam 4-C),fractional inhibitory concentration index (FICI),Staphylococcus aureus [1],0.75
same,Activity,Escherichia coli [2],Active
same,Activity,[3],Toxic
same,MIC,Escherichia coli [4],4 µM
same,fractional inhibitory concentration index (FICI),Escherichia coli [5],1.25
same,Activity,Staphylococcus aureus [6],0 CFU/g
same,Activity,Escherichia coli [7],Active
same,LD50,[8],25.5 mg/kg
same,Activity,[9],Toxic
same,Activity,Cell membrane [10],Active
same,fractional inhibitory concentration index (FICI),Escherichia coli [11],0.3125
same,Time,Staphylococcus aureus [12],6 h
same,CC50 at 1 h,[13],> 128 µM
same,Activity,Cell membrane [14],Dde
same,Activity,[15],Toxic
same,fractional inhibitory concentration index (FICI),Escherichia coli [16],0.25
same,Activity,Cell membrane [17],Active
same,MIC,[18],16 µM
same,Activity,Staphylococcus aureus [19],Active
same,MIC,Bacillus subtilis,4 µM
same,HC10,Erythrocyte,> 256 µM
same,Activity,Cell membrane [20],Active
same,Activity,[21],Toxic
same,MIC,Staphylococcus aureus [22],16 µM
same,Activity,[23],Toxic
same,MIC,Klebsiella pneumoniae,4 µM
same,MIC,Enterococcus faecalis,128 µM
same,Activity,Lipopolysaccharide (LPS),Active
same,MIC,Pseudomonas aeruginosa,2 µM
